According to PubChem BioAssay (NCI):
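Briefly, cells in 96-well plates were exposed to five compound concentrations for 48 h, and endpoints were estimated by linear interpolation. GI50: concentration for 50% inhibition of growth. TGI is the concentration that stops growth completely.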

Key:
Assay in all cases: DTP human tumour cell line panel, 48 h
U251 CNS = tested on: U251 CNS
MOLT-4 leukemia = tested on: MOLT-4 leukemia
RXF 393 renal = tested on: RXF 393 renal
MALME-3M melanoma = tested on: MALME-3M melanoma
NCI-H226 lung = tested on: NCI-H226 lung
KM20L2 colon = tested on: KM20L2 colon
SF-539 CNS = tested on: SF-539 CNS
DLD-1 colon = tested on: DLD-1 colon
HCT-15 colon = tested on: HCT-15 colon
M14 melanoma = tested on: M14 melanoma

Compound | TGI (U251 CNS) | TGI (MOLT-4 leukemia) | TGI (RXF 393 renal) | TGI (MALME-3M melanoma) | TGI (NCI-H226 lung) | TGI (KM20L2 colon) | TGI (SF-539 CNS) | TGI (DLD-1 colon) | TGI (HCT-15 colon) | TGI (M14 melanoma) | GI50 (U251 CNS) | GI50 (MOLT-4 leukemia) | GI50 (RXF 393 renal) | GI50 (MALME-3M melanoma) | GI50 (NCI-H226 lung) | GI50 (KM20L2 colon) | GI50 (SF-539 CNS) | GI50 (DLD-1 colon) | GI50 (HCT-15 colon) | GI50 (M14 melanoma)
Cc1nnc(N=Nc2c(O)[nH]c3c(Cl)cc(Cl)cc23)n1N | > 100 µM | > 100 µM | > 100 µM | > 100 µM | > 100 µM | > 100 µM | > 100 µM | > 100 µM | > 100 µM | > 100 µM |  |  |  |  |  |  |  |  |  | 
Nc1nc(Cl)cc(NCCCCCNc2cc(Cl)nc(N)n2)n1 | > 100 µM | > 100 µM | > 100 µM |  | > 100 µM | > 100 µM | > 100 µM | > 100 µM | > 100 µM | > 100 µM |  |  |  |  |  |  |  |  |  | 
COCc1c(CO)cnc(C)c1OC1OC(CO)C(O)C(O)C1O (stereo not given) | > 100 µM | > 100 µM | > 100 µM | > 100 µM | > 100 µM | > 100 µM | > 100 µM | > 100 µM | > 100 µM | > 100 µM |  |  |  |  |  |  |  |  |  | 
CCOC(=O)Cc1nc2ccccc2s1 | 30.7 µM | 65.9 µM | 35.3 µM | 31.2 µM | 49.2 µM | 69.1 µM | 36.6 µM | 33.5 µM |  | 31 µM |  |  |  |  |  |  |  |  |  | 
CC(C)N(C(=O)C1(C)CC1)C(C)C | > 100 µM | > 100 µM | > 100 µM | > 100 µM | > 100 µM | > 100 µM | > 100 µM | > 100 µM | > 100 µM | > 100 µM |  |  |  |  |  |  |  |  |  | 
CC1=C(C(=O)Nc2ccccc2)C(c2ccc([N+](=O)[O-])cc2)C(C(=O)Nc2ccccc2)=C(C)N1 | 38.6 µM | > 100 µM | 46.2 µM | > 100 µM | > 100 µM | 35.3 µM | 44.9 µM | > 100 µM | 50.9 µM | 41.8 µM |  |  |  |  |  |  |  |  |  | 
COc1cc(Br)c(CC2(C#N)c3ccccc3C3C(N2C(=O)c2ccccc2)C3(Cl)Cl)cc1OC (stereo not given) | > 65.5 µM |  | > 65.5 µM | > 65.5 µM | > 65.5 µM | > 65.5 µM | > 65.5 µM | > 65.5 µM | > 65.5 µM | > 65.5 µM |  |  |  |  |  |  |  |  |  | 
C[N+](C)(C)CC(=O)N/N=C(\CCC(=O)NCCc1ccccc1)CC(=O)c1ccccc1 | > 100 µM | > 100 µM |  | > 100 µM | > 100 µM | > 100 µM | > 100 µM | > 100 µM | > 100 µM | > 100 µM |  |  |  |  |  |  |  |  |  | 
O=C1OC(c2ccccc2)=N/C1=C\c1ccc2ccccc2c1 | > 100 µM | > 100 µM | > 100 µM | > 100 µM |  | > 100 µM | > 100 µM | > 100 µM | > 100 µM | > 100 µM |  |  |  |  |  |  |  |  |  | 
N.N.N.N.O=NN1CCCCCC1(P(=O)([O-])[O-])P(=O)([O-])[O-].[Pt+4].[Pt+4] | > 100 µM | > 100 µM | > 100 µM | > 100 µM | > 100 µM | > 100 µM | > 100 µM | > 100 µM | > 100 µM | > 100 µM | > 100 µM | > 100 µM | > 100 µM | > 100 µM | > 100 µM | > 100 µM | > 100 µM | > 100 µM | > 100 µM | > 100 µM
CCN(CC)CC.CCOc1ccc(NC(=O)N=C=[N-])cc1.[CH-]1CCCCC1.[CH-]1CCCCC1.[CH-]1CCCCC1.[Cl-].[Sn+4] | 0.0718 µM | 0.233 µM | 0.0336 µM | 0.119 µM | 0.183 µM | 0.0505 µM | 0.052 µM | 0.0478 µM | 0.0555 µM | 0.0727 µM | 0.0261 µM | 0.0281 µM | 0.0146 µM | 0.0452 µM | 0.0737 µM | 0.0229 µM | 0.0234 µM | 0.018 µM | 0.0198 µM | 0.0264 µM
